According to ChEMBL document CHEMBL3085671, “5,6-Dihydro-5-aza-2'-deoxycytidine potentiates the anti-HIV-1 activity of ribonucleotide reductase inhibitors” (Bioorg Med Chem, 2013):
Activity calls are given as the source filed them. No cut-off for these calls is given here.

How the values were obtained:
[1] = tested on: Human immunodeficiency virus 1; assay: Antiviral activity against HIV1 assessed as viral infection; type: functional, organism-based
[2] = Selectivity index, ratio of CC50 for human U373-MAGI cells to EC50 for HIV1 infected in human U373-MAGI cells; type: toxicity, cell-based; details: read-out: Ratio CC50/EC50
[3] = Cytotoxicity against human U373-MAGI cells by CellTitre-Glo assay; type: cell-based
[4] = tested on: Human immunodeficiency virus 1; assay: Antiviral activity against HIV1 infected in human U373-MAGI cells incubated for 2 hrs prior to viral infection followed by compound washout after 24 hrs measured 72 hrs post-infection by flow cytometry; type: functional, organism-based; details: Human immunodeficiency virus 1, U373-MAGI
[5] = tested on: Human immunodeficiency virus 1; assay: Antiviral activity against HIV1 infected in human U373-MAGI cells assessed as increase in mutant frequency incubated for 2 hrs prior to viral infection followed by compound washout after 24 hrs measured 72 hrs post-infection by flow cytometry; type: functional, organism-based
[6] = tested on: Human immunodeficiency virus 1; assay: Antiviral activity against HIV1 infected in human U373-MAGI cells assessed as A to G mutation at 20 nM (reference value: 22%); type: functional
[7] = tested on: Human immunodeficiency virus 1; assay: Antiviral activity against HIV1 infected in human U373-MAGI cells assessed as G to A mutation at 20 nM (reference value: 27%); type: functional
[8] = tested on: Human immunodeficiency virus 1; assay: Antiviral activity against HIV1 infected in human U373-MAGI cells assessed as C to T mutation at 20 nM (reference value: 13%); type: functional
[9] = tested on: Human immunodeficiency virus 1; assay: Antiviral activity against HIV1 infected in human U373-MAGI cells assessed as T to C mutation at 20 nM (reference value: 18%); type: functional
[10] = tested on: Human immunodeficiency virus 1; assay: Antiviral activity against HIV1 infected in human U373-MAGI cells assessed as induction of mutations at 20 nM (reference value: 18%); type: functional
[11] = tested on: Human immunodeficiency virus 1; assay: Antiviral activity against HIV1 infected in human U373-MAGI cells assessed as A to G mutation at 200 uM (reference value: 22%); type: functional
[12] = tested on: Human immunodeficiency virus 1; assay: Potentiation of resveratrol-induced antiviral activity against HIV1 infected in human U373-MAGI cells G to A mutation at 200 uM (reference value: 27%); type: functional
[13] = tested on: Human immunodeficiency virus 1; assay: Potentiation of gemcitabine-induced antiviral activity against HIV1 infected in human U373-MAGI cells G to A mutation at 5 uM (reference value: 27%); type: functional
[14] = Cytotoxicity against human U373-MAGI cells up to 200 uM by CellTitre-Glo assay; type: cell-based
[15] = tested on: Human immunodeficiency virus 1; assay: Potentiation of deferoxamine-induced antiviral activity against HIV1 infected in human U373-MAGI cells at 200 uM incubated for 2 hrs prior to viral infection followed by compound washout after 24 hrs measured 72 hrs post-infection by flow cytometry; type: functional, organism-based; details: Human immunodeficiency virus 1, U373-MAGI
[16] = tested on: Human immunodeficiency virus 1; assay: Potentiation of gemcitabine-induced antiviral activity against HIV1 infected in human U373-MAGI cells at 5 uM incubated for 2 hrs prior to viral infection followed by compound washout after 24 hrs measured 72 hrs post-infection by flow cytometry; type: functional, organism-based; details: Human immunodeficiency virus 1, U373-MAGI
[17] = tested on: Human immunodeficiency virus 1; assay: (§1) Potentiation of deferoxamine-induced antiviral activity against HIV1 infected in human U373-MAGI cells assessed as increase in mutant frequency at 5 to 200 uM incubated for 2 hrs prior to viral infection followed by compound washout after 24 hrs measured 72 hrs post-infection by flow cytometry relative to control; type: functional
[18] = tested on: Human immunodeficiency virus 1; assay: as §1, with “resveratrol-induced” for “deferoxamine-induced”; type: functional
[19] = tested on: Human immunodeficiency virus 1; assay: Potentiation of deferoxamine-induced antiviral activity against HIV1 infected in human U373-MAGI cells incubated for 2 hrs prior to viral infection followed by compound washout after 24 hrs measured 72 hrs post-infection by flow cytometry; type: functional, organism-based
[20] = tested on: Human immunodeficiency virus 1; assay: Potentiation of resveratrol-induced antiviral activity against HIV1 infected in human U373-MAGI cells at 200 uM incubated for 2 hrs prior to viral infection followed by compound washout after 24 hrs measured 72 hrs post-infection by flow cytometry; type: functional, organism-based; details: Human immunodeficiency virus 1, U373-MAGI
[21] = tested on: Human immunodeficiency virus 1; assay: Potentiation of resveratrol-induced antiviral activity against HIV1 infected in human U373-MAGI cells incubated for 2 hrs prior to viral infection followed by compound washout after 24 hrs measured 72 hrs post-infection by flow cytometry; type: functional, organism-based
[22] = tested on: Human immunodeficiency virus 1; assay: Inhibition of gemcitabine-induced antiviral activity against HIV1 infected in human U373-MAGI cells assessed as increase in mutant frequency incubated for 2 hrs prior to viral infection followed by compound washout after 24 hrs measured 72 hrs post-infection by flow cytometry relative to gemcitabine; type: functional, organism-based
[23] = tested on: Human immunodeficiency virus 1; assay: as §1, with “gemcitabine-induced” for “deferoxamine-induced”, “25” for “5 to 200”; type: functional
[24] = tested on: Human immunodeficiency virus 1; assay: Inhibition of gemcitabine-induced antiviral activity against HIV1 infected in human U373-MAGI cells at 100 to 200 uM incubated for 2 hrs prior to viral infection followed by compound washout after 24 hrs measured 72 hrs post-infection by flow cytometry; type: functional, organism-based
[25] = tested on: Human immunodeficiency virus 1; assay: Potentiation of gemcitabine-induced antiviral activity against HIV1 infected in human U373-MAGI cells at 5 to 50 uM incubated for 2 hrs prior to viral infection followed by compound washout after 24 hrs measured 72 hrs post-infection by flow cytometry; type: functional, organism-based
[26] = tested on: Human immunodeficiency virus 1; assay: Antiviral activity against HIV1 infected in human U373-MAGI cells assessed as increase in mutant frequency at 5 to 200 uM incubated for 2 hrs prior to viral infection followed by compound washout after 24 hrs measured 72 hrs post-infection by flow cytometry; type: functional
[27] = tested on: Human immunodeficiency virus 1; assay: Antiviral activity against HIV1 infected in human U373-MAGI cells at 5 to 200 uM incubated for 2 hrs prior to viral infection followed by compound washout after 24 hrs measured 72 hrs post-infection by flow cytometry; type: functional, organism-based
[28] = tested on: Human immunodeficiency virus 1; assay: Potentiation of gemcitabine-induced antiviral activity against HIV1 infected in human U373-MAGI cells assessed as induction of mutations at 5 uM (reference value: 18%); type: functional
[29] = tested on: Human immunodeficiency virus 1; assay: Antiviral activity against HIV1 infected in human U373-MAGI cells assessed as G to A mutation at 200 uM (reference value: 27%); type: functional
[30] = tested on: Human immunodeficiency virus 1; assay: Potentiation of gemcitabine-induced antiviral activity against HIV1 infected in human U373-MAGI cells assessed as G to C mutation at 5 uM; type: functional
[31] = tested on: Human immunodeficiency virus 1; assay: Antiviral activity against HIV1 infected in human U373-MAGI cells assessed as G to C mutation at 200 uM; type: functional
[32] = tested on: Human immunodeficiency virus 1; assay: Potentiation of resveratrol-induced antiviral activity against HIV1 infected in human U373-MAGI cells assessed as C to T mutation at 200 uM (reference value: 13%); type: functional
[33] = tested on: Human immunodeficiency virus 1; assay: Potentiation of gemcitabine-induced antiviral activity against HIV1 infected in human U373-MAGI cells assessed as C to T mutation at 5 uM (reference value: 13%); type: functional
[34] = tested on: Human immunodeficiency virus 1; assay: Antiviral activity against HIV1 infected in human U373-MAGI cells assessed as C to T mutation at 200 uM (reference value: 13%); type: functional
[35] = tested on: Human immunodeficiency virus 1; assay: Potentiation of resveratrol-induced antiviral activity against HIV1 infected in human U373-MAGI cells assessed as T to C mutation at 200 uM (reference value: 18%); type: functional
[36] = tested on: Human immunodeficiency virus 1; assay: Potentiation of gemcitabine-induced antiviral activity against HIV1 infected in human U373-MAGI cells assessed as T to C mutation at 5 uM (reference value: 18%); type: functional
[37] = tested on: Human immunodeficiency virus 1; assay: Antiviral activity against HIV1 infected in human U373-MAGI cells assessed as T to C mutation at 200 uM (reference value: 18%); type: functional
[38] = tested on: Human immunodeficiency virus 1; assay: Potentiation of resveratrol-induced antiviral activity against HIV1 infected in human U373-MAGI cells assessed as A to G mutation at 200 uM (reference value: 22%); type: functional
[39] = tested on: Human immunodeficiency virus 1; assay: Potentiation of gemcitabine-induced antiviral activity against HIV1 infected in human U373-MAGI cells assessed as A to G mutation at 5 uM (reference value: 22%); type: functional
[40] = tested on: Human immunodeficiency virus 1; assay: Potentiation of resveratrol-induced antiviral activity against HIV1 infected in human U373-MAGI cells assessed as G to C mutation at 200 uM; type: functional
[41] = tested on: Human immunodeficiency virus 1; assay: Potentiation of gemcitabine-induced antiviral activity against HIV1 infected in human U373-MAGI cells assessed as induction of mutations at 200 uM (reference value: 18%); type: functional
[42] = tested on: Human immunodeficiency virus 1; assay: Antiviral activity against HIV1 infected in human U373-MAGI cells assessed as induction of mutations at 200 uM (reference value: 18%); type: functional
[43] = tested on: Human immunodeficiency virus 1; assay: Antiviral activity against HIV1 infected in human U373-MAGI cells assessed as A to G mutation at 50 uM (reference value: 22%); type: functional
[44] = tested on: Human immunodeficiency virus 1; assay: Antiviral activity against HIV1 infected in human U373-MAGI cells assessed as G to A mutation at 50 uM (reference value: 27%); type: functional
[45] = tested on: Human immunodeficiency virus 1; assay: Antiviral activity against HIV1 infected in human U373-MAGI cells assessed as C to T mutation at 50 uM (reference value: 13%); type: functional
[46] = tested on: Human immunodeficiency virus 1; assay: Antiviral activity against HIV1 infected in human U373-MAGI cells assessed as T to C mutation at 50 uM (reference value: 18%); type: functional
[47] = tested on: Human immunodeficiency virus 1; assay: Antiviral activity against HIV1 infected in human U373-MAGI cells assessed as induction of mutations at 50 uM (reference value: 18%); type: functional

Question: With Nc1ncn([C@@H]2O[C@H](CO)[C@@H](O)[C@H]2O)c(=O)n1 [AZACITIDINE] as the compound, how does the EC50 [1] read?
Answer: The EC50 was 53 µM.

Question: Which results are given for CC(=O)N(O)CCCCCNC(=O)CCC(=O)N(O)CCCCCNC(=O)CCC(=O)N(O)CCCCCN [DEFEROXAMINE]?
Answer: selectivity ratio [2]: > 1; CC50 ([3]; u373-magi): > 400 µM; EC50 [4]: 384 µM; Activity [5]: Dose-dependent effect

Question: For Nc1ccn([C@@H]2O[C@H](CO)[C@@H](O)C2(F)F)c(=O)n1 [GEMCITABINE], which Activity [6] is on record?
Answer: The Activity was 24%.

Question: What about the CC50 ([3]; u373-magi) of the same compound?
Answer: The CC50 was 62 µM.

Question: And the Activity [5]?
Answer: The Activity was “Dose-dependent effect”.

Question: What about the Activity [7] of the same compound?
Answer: Its Activity is 13%.

Question: And the Activity [8]?
Answer: The Activity was 13%.

Question: And the Activity [9]?
Answer: Its Activity is 24%.

Question: What about the Activity [10] of the same compound?
Answer: Its Activity is 24%.

Question: Which results are given for NC1=NC(=O)N([C@H]2C[C@H](O)[C@@H](CO)O2)CN1 [KP-1212]?
Answer: Activity [11]: 18%; Activity [12]: 13%; Activity [13]: 18%; Activity [14]: Non-toxic; EC50 [15]: 248 µM; EC50 [16]: 0.0216 µM; fold change (FC) [17]: 4.7; fold change (FC) [18]: 6.2; Activity [19]: Dose-dependent effect; EC50 [20]: 52.8 µM; Activity [21]: Dose-dependent effect; inhibition [22]: Active; fold change (FC) [23]: 4.8; inhibition [24]: Active; Activity [25]: Active; Activity [5]: Dose-dependent effect; fold change (FC) [26]: 1.6; Activity [27]: Active; EC50 [1]: 0.01 µM; Activity [28]: 14%; Activity [29]: 24%; Activity [30]: 11%; Activity [31]: 22%; Activity [32]: 9%; Activity [33]: 12%; Activity [34]: 10%; Activity [35]: 10%; Activity [36]: 14%; Activity [37]: 8%; Activity [38]: 13%; Activity [39]: 32%; Activity [40]: 41%; Activity [41]: 14%; Activity [42]: 16%

Question: Which Activity [43] does the source give for Oc1ccc(/C=C/c2cc(O)cc(O)c2)cc1 [RESVERATROL] here?
Answer: Its Activity is 38%.

Question: And the Activity [44]?
Answer: Its Activity is 18%.

Question: What about the CC50 ([3]; U373-MAGI cells) of the same compound?
Answer: Its CC50 is over 400 µM.

Question: And the EC50 [4]?
Answer: Its EC50 is 99.6 µM.

Question: And the Activity [5]?
Answer: The Activity was “Dose-dependent effect”.

Question: What about the Activity [45] of the same compound?
Answer: The Activity was 4%.

Question: What about the Activity [46] of the same compound?
Answer: Its Activity is 16%.

Question: And the Activity [47]?
Answer: Its Activity is 22%.
